Reference: patent US20070238785A1, “Use of an anti-atherothrombotic compound in obtaining medicaments intended for the treatment of vascular disorders” (priority 2006, published 2007)
Counter-ions that a name gives are not always drawn.

Columns and labels:
sodium-loaded SHR-SP rat [1] = assay: survival study in sodium-loaded SHR-SP rat; format: in vivo; conditions: 30 mg/kg/day in food, 1% NaCl in drinking water, from 10 weeks of age; Carrier group 57 days
Procedure: (§1) 10-week old male SHR-SP rats (Charles River) being given 1% NaCl in their drinking water were separated into two groups in random manner and were treated, or not, with the sodium salt of the (R) isomer of the compound of formula (I) (30 mg/kg/day) incorporated in their food.
In a first study, the survival of each group was determined by calculating the percentage of animals alive each day after the start of treatment.
(§2) The results are reported as the mean±S.E.M. Differences are considered significant when P<0.05 after a Student's t test. The survival of the animals is represented on a Kaplan-Meier graph and the results are considered significant when P<0.05 after a log-rank test.

sodium-loaded SHR-SP rat [2] = assay: 5-week study in sodium-loaded SHR-SP rat (cardiac hypertrophy, urinary 8-OH-dG, plasma thiostatin); format: in vivo; conditions: 30 mg/kg/day in food, 5 weeks, compared to Carrier group
Procedure: as §1
In a second study, the rats were monitored over 5 weeks, between 10 and 15 weeks of age, and were then sacrificed in order to quantify a urinary marker of oxidative stress (8-OH-dG) and a plasma marker reflecting acute inflammation (thiostatin, which in the rat is the equivalent of CRP) and in order to determine cardiac hypertrophy.
During the last 24 hours of monitoring, the animals were placed in individual metabolic cages and the urines were collected in sterile tubes (200 μl of 2 mM EDTA). Diuresis was measured and the production of 8-hydroxy-2′-deoxyguanosine (8-OH-dG) was quantified by ELISA assay (Oxis, Bioxytech).
The rats were anaesthetised by intraperitoneal injection of pentobarbital sodium (50 mg/kg, Ceva laboratories). Blood was sampled from the carotid artery (sampling into heparin 5000 IU/ml) in order to measure thiostatin production by ELISA assay (Life Diagnostics). The heart was excised, dried and weighed, and cardiac hypertrophy was determined by dividing the weight of the dry heart by the body weight for each animal in order to standardise the measurement.
as §2

atherosclerotic lesion = assay: experimental models of anti-proliferative, anti-atheromatous and anti-inflammatory effects; format: in vivo
radial artery = assay: peripheral vasomotor response, provoked hyperaemia test in atheromatous patients; format: in vivo; conditions: versus placebo, patients treated with aspirin; whatever the dose, single or repeated administration (15 days), about 2 hours after administration
Procedure: This superiority is observed whatever the dose, after single administration or repeated administration (15 days), the vasodilatory effect being evaluated about 2 hours after administration of the medicament.

carotid thrombosis = assay: models of carotid thrombosis in vivo and ex vivo (occlusion time); conditions: carotid thrombosis: vascular electrolysis (dog), mechanical lesion (guinea pig), electric stimulation (rat), ex vivo carotid-carotid arterial bypass by glass capillary
thrombus = assay: ex vivo anti-thrombotic activity, perfusion chamber model, in patients at high risk of ischaemic CVA
Source text: In this study, the sodium salt of the (R) isomer of the compound of formula (I) also has an effect on the measured markers of inflammation (sVCAM, sPAI-1, sP-selectin, thrombomodulin).

[3] = after 10 days of administration, compared with aspirin

Cc1ccc2c(c1CCC(=O)O)CCC(NS(=O)(=O)c1ccc(Cl)cc1)C2 [sodium salt of the (R) isomer of the compound of formula (I), 3-{6-[(4-chlorophenylsulphonyl)amino]-2-methyl-5,6,7,8-tetrahydro-naphth-1-yl}propionic acid]
time after which half the rats were dead (survival) (sodium-loaded SHR-SP rat [1]): 99 days | cardiac hypertrophy (dry heart weight / body weight) (sodium-loaded SHR-SP rat [2]): less marked | plasma thiostatin (acute inflammation) (sodium-loaded SHR-SP rat [2]): lower | total amount of 8-OH-dG in urines over 24 hours (oxidative stress) (sodium-loaded SHR-SP rat [2]): reduced | expression of adhesion molecules and markers such as endothelin, ICAM and VCAM (atherosclerotic lesion): inhibits | infiltration of macrophages into the vascular wall (atherosclerotic lesion): inhibits | intima/media ratio (atherosclerotic lesion): significantly reduces | serum cholesterol (atherosclerotic lesion): without reducing | surface area of the atherosclerotic lesion (atherosclerotic lesion): significantly reduces | thickness of the vascular wall (atherosclerotic lesion): significantly reduces | endothelium-dependent vasodilation (radial artery): superiority | occlusion time (carotid thrombosis): lengthens the occlusion time in dose-dependent manner | % adhesion (thrombus; [3]): superiority | dense surface area of the thrombus (thrombus; [3]): superiority | total surface area of the thrombus (thrombus; [3]): superiority | measured markers of inflammation (sVCAM, sPAI-1, sP-selectin, thrombomodulin) (thrombus; patients at high risk of ischaemic CVA): has an effect
